{"source": "patent US12233073B2", "about": "“Skin care formulations and skin cancer treatment” (Regents of the University of Minnesota, priority 2017, dated 2025)", "key": {"[1]": {"system": "cyclobutane pyrimidine dimers (CPD)", "assay": "Cyclobutane pyrimidine dimer (CPD) formation in skin of SKH1 hairless mice exposed to acute SSL", "format": "in vivo, mouse", "conditions": "topical 0.1% or 1%", "description": "The effect of rocuronium bromide treatment and betamethasone 17-valerate treatment on the formation of cyclobutene pyrimidine dimers was evaluated. sUV-induced DNA damage, predominantly observed as the formation of cyclobutane pyrimidine dimers (CPD), is recognized as an important molecular trigger for the initiation of sUV-induced immunosuppression and carcinogenesis in the skin. FIG. 19A is a chart comparing effect of rocuronium bromide treatment and betamethasone 17-valerate treatment on the formation of cyclobutene pyrimidine dimers in skin tissues from SKH1 hairless mice exposed to acute SSL. FIG. 19C is a photographic array comparing amount of CPD in immunologically stained control mouse skin samples. FIG. 19D is a photographic array comparing amount of CPD in immunologically stained mouse skin samples exposed only to a vehicle. FIG. 19E is a photographic array comparing amount of CPD in immunologically stained mouse skin samples exposed to rocuronium bromide alone. FIG. 19F is a photographic array comparing amount of CPD in immunologically stained mouse skin samples exposed to betamethasone 17-valerate alone. FIG. 19G is a photographic array comparing amount of CPD in immunologically stained mouse skin samples exposed to SSL alone. FIG. 19H is a photographic array comparing amount of CPD in immunologically stained mouse skin samples exposed to SSL with the vehicle. […]"}, "[2]": {"system": "SSL-induced skin carcinogenesis in SKH-1 hairless mice", "assay": "Chronic SSL-induced skin carcinogenesis in SKH-1 hairless mice (early-stage and late-stage prevention models)", "format": "in vivo, mouse", "conditions": "for SSL-induced neovascularization in tumor areas: early- and late-stage models (FIGS. 23, 24A, 24B); for SSL-induced skin carcinogenesis: topical cream 0.1% or 1%; for Ki-67 expression / PRPK phosphorylation: skin staining, FIGS. 23, 24A, 24B", "description": "The effectiveness of rocuronium bromide (EXAMPLES 11 and 12) and betamethasone 17-valerate (EXAMPLE 13) in mouse models of chronic sUV-induced skin carcinogenesis was evaluated. Female SKH-1 hairless mice (5 weeks old, Charles River, Burlington, MA) were used. Skin carcinogenesis was induced by SSL-irradiation source lamps. […] For topical treatment to the dorsal mouse skin, cream (oil-in-water emulsions) containing 0.1% or 1% (0.1 or 1 mg in 100 μl) of rocuronium bromide or betamethasone 17-valerate were prepared. The models included early-stage prevention models (EXAMPLE 11) and a late-stage prevention models (EXAMPLES 12 and 13). […] SSL treatment was for 15 weeks and the drug cream was continued for 29 weeks. In the late-stage model, mice received SSL for 15 weeks at which time they began receiving topical application with rocuronium bromide or betamethasone 17-valerate. For the early stage model, SKH-1 hairless mice were divided into groups as follows: Groups 1 and 2 were negative control groups, untreated and treated with only cream vehicle with no SSL exposure; Group 3=1% rocuronium bromide; Group 4=SSL alone without cream; Group 5=SSL with cream only; Group 6=0.1% rocuronium bromidein cream with SSL; Group 7=1% rocuronium bromide in cream with SSL. For the late stage models, groups were as follows: Groups 8 and 9 were negative control groups, untreated and treated with only cream vehicle with no SSL exposure; Group 10=1% rocuronium bromide only; Group 11=1% betamethasone 17-valerate only; Group 12=SSL alone with cream; Group 13=SSL with 0.1% rocuronium bromide; Group 14=1% rocuronium bromide in cream with SSL; Group 15=0.1% betamethasone 17-valerate in cream with SSL; and Group 16=1% […] betamethasone 17-valerate in cream with SSL. An antibiotic ointment was applied to the eyes of each mouse prior to SSL exposure and body weight and tumor volume were measured each week."}, "[3]": {"target": "T1, wildtype PRPK recombinant GST protein (Homo sapiens, UniProt Q96S44)", "T1 sequence (Q96S44 1-253)": "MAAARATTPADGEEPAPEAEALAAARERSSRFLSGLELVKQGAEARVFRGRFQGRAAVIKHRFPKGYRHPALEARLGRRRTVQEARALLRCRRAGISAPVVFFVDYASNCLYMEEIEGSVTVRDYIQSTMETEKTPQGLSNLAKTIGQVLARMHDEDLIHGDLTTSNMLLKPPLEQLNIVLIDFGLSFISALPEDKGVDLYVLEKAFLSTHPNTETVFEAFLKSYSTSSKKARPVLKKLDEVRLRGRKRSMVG", "assay": "In vitro binding assay, drug-conjugated Sepharose 4B beads with GST-PRPK", "conditions": "pull-down with drug-conjugated Sepharose 4B beads", "description": "(§1) The interaction between rocuronium bromide and PRPK, and the inhibition of PRPK phosphorylation by rocuronium bromide was evaluated. In vitro and ex vivo binding assays were conducted using GST-PRPK or A431 cell lysates and rocuronium bromide-conjugated Sepharose 4B beads. FIG. 13A is a photograph illustrating a chromatographic plate showing the interaction and binding of PRPK with rocuronium bromide in A431 cells. FIG. 13B is a photograph illustrating a chromatographic plate showing the interaction and binding of rocuronium bromide with wildtype PRPK recombinant GST protein.\nas §1, with “betamethasone 17-valerate” for “rocuronium bromide”, “using recombinant” for “using”, “betamethasone 17-valerate-conjugated” for “rocuronium bromide-conjugated”, “14A” for “13A”, “14B” for “13B”"}, "[4]": {"assay": "Absorption of sUV wavelengths by the PRPK inhibitors", "format": "physicochemical", "conditions": "for absorption of sUV wavelengths: UVB or UVA range (280 to 400 nm)", "description": "To assess whether the effectiveness of rocuronium bromide or betamethasone 17-valerate was related to absorption or attenuation of sUV wavelengths, instead of or in addition to inhibition of PRPK phosphorylation, absorption of sUV wavelengths by rocuronium bromide or betamethasone 17-valerate was evaluated. […] The maximum absorption wavelength for rocuronium bromide was 227 nm, and that for betamethasone-17-valerate was 240 nm."}}, "data": [{"compound": "C=CC[N+]1([C@H]2C[C@H]3[C@@H]4CC[C@H]5C[C@H](O)[C@@H](N6CCOCC6)C[C@]5(C)[C@H]4CC[C@]3(C)[C@H]2OC(C)=O)CCCC1", "note": "[rocuronium bromide]", "values": [{"measurement": "sUV-induced CPD production", "setting": "[1]", "value": "reduced"}, {"measurement": "levels of COX-2 in SKH-1 hairless mouse skin", "setting": "[2]; FIGS. 20C, 21C", "value": "suppressed"}, {"measurement": "levels of MMP-9 in SKH-1 hairless mouse skin", "setting": "[2]; FIGS. 20C, 21C", "value": "suppressed"}, {"measurement": "levels of cyclin D1 in SKH-1 hairless mouse skin", "setting": "[2]; FIGS. 20C, 21C", "value": "suppressed"}, {"measurement": "levels of phosphorylated PRPK in SKH-1 hairless mouse skin", "setting": "[2]; FIGS. 20C, 21C", "value": "suppressed"}, {"measurement": "SSL-induced neovascularization in tumor areas", "setting": "[2]", "value": "inhibited"}, {"measurement": "tumor volume", "setting": "[2]; early-stage model (FIG. 20A)", "value": "decreased"}, {"measurement": "tumor number", "setting": "[2]; early-stage model (FIG. 20B)", "value": "decreased"}, {"measurement": "SSL-induced skin carcinogenesis", "setting": "[2]; early-stage model", "value": "reduced"}, {"measurement": "tumor number", "setting": "[2]; late-stage model", "value": "decreased"}, {"measurement": "tumor volume", "setting": "[2]; late-stage model", "value": "decreased"}, {"measurement": "SSL-induced skin carcinogenesis", "setting": "[2]; late-stage model", "value": "reduced"}, {"measurement": "Ki-67 expression", "setting": "[2]", "value": "inhibited"}, {"measurement": "PRPK phosphorylation", "setting": "[2]", "value": "inhibited"}, {"measurement": "binding to GST-PRPK", "setting": "[3]", "value": "binds"}, {"measurement": "maximum absorption wavelength", "setting": "[4]", "value": 227, "unit": "nm"}, {"measurement": "absorption of sUV wavelengths", "setting": "[4]", "value": "do not Substantially Absorb or Block"}]}, {"compound": "CCCCC(=O)O[C@]1(C(=O)CO)[C@@H](C)C[C@H]2[C@@H]3CCC4=CC(=O)C=C[C@]4(C)[C@@]3(F)[C@@H](O)C[C@@]21C", "note": "[betamethasone 17-valerate]", "values": [{"measurement": "sUV-induced CPD production", "setting": "[1]", "value": "reduced"}, {"measurement": "SSL-induced neovascularization in tumor areas", "setting": "[2]", "value": "inhibited"}, {"measurement": "tumor number", "setting": "[2]; late-stage model", "value": "reduces"}, {"measurement": "tumor volume", "setting": "[2]; late-stage model", "value": "reduces"}, {"measurement": "SSL-induced skin carcinogenesis", "setting": "[2]; late-stage model", "value": "reduced"}, {"measurement": "Ki-67 expression", "setting": "[2]", "value": "inhibited"}, {"measurement": "PRPK phosphorylation", "setting": "[2]", "value": "inhibited"}, {"measurement": "binding to GST-PRPK", "setting": "[3]", "value": "binds"}, {"measurement": "maximum absorption wavelength", "setting": "[4]", "value": 240, "unit": "nm"}, {"measurement": "absorption of sUV wavelengths", "setting": "[4]", "value": "do not Substantially Absorb or Block"}]}]}
